Entries after “also recorded” stand apart in the source; their conditions may differ.
B1: the enzyme of the present invention: D-aminoacylase from the Defluvibacter sp. A131-3 strain obtained in Example 3; amino acid sequence of SEQ ID NO. 2 (protein)
chain: MAKSFDLVIRNGRVVDPETGHDAIADVAVSGGQIVAVGPSLGAGKREIDATGLVVSPGFIDLHAHGQSIPADRMQAFDGVTTALELEVGSLPVARWYEQQQAGGRVLNYGTAAAWIFARKAVMIGMELDGRLAPIEMMGAGSDDMRWSVDAATAPQTDDIVRLTRQALEEGALGIGIPHGYAAGAGVKEMTRICELAAEFDRPTYTHIPYMSNIDPRSSVEAYVQLIGLAGATGAHMHICHLNSTSLRDVEDAARLIAKAQAQGLPITTEAYPYGTGSTVMSARFFIDSDFAERTGTGYDAIQVVSSGKRFENRDELVAARAETPEALVLWHYLDTDNPHDQRLLDVSVMYPGGAIASDAVPWSNPDGTLYTGEEWPLPADKTSHPRSAGTYTRFLAQWVREREAVPLVEAIAKCALIPAQIVERCSDVFRRKGRLQPGCDADIVIFDLESVQDRSTFEDMHLAADGMVHVLVNGEAVIANGELVRDARSGRAIRSTPR
modifications: Defluvibacter sp.A131-3

Columns and labels:
[1] = system: D-aminoacylase from the Defluvibacter sp. A131-3 strain; assay: Effects of inhibitor on D-aminoacylase activity (D-valine produced, HPLC); format: biochemical; conditions: for Effects of inhibitors on activity: each at 5 mmol/L; for Relative activity (%): inhibitor 5 mmol/L, 0.5 mol/L N-acetyl-D-valine, enzyme 500 U, 40° C., 1 day, no addition of inhibitor = 100%
Procedure: The detection was conducted at 230 nm. The column was analyzed at a temperature of 30° C. The enzymatic activity was evaluated in terms of the ratio between the area of the acetyl compound and the free compound, and the resolution rate was expressed as a […]

[2] = system: D-aminoacylase from the Defluvibacter sp. A131-3 strain; assay: Effects of metal ions on D-aminoacylase activity (D-valine produced, HPLC); format: biochemical; conditions: for Effects of metal ions on activity: each at 1 mmol/L; for Relative activity (%): metal ion 1.0 mmol/L, 0.5 mol/L N-acetyl-D-valine, enzyme 500 U, 40° C., 1 day, no metal addition = 100%
[3] = system: D-aminoacylase from the Defluvibacter sp. A131-3 strain; assay: Substrate specificity, acylase activity measurement using D-/L-amino acid oxidase chromogenic reagent; format: biochemical; conditions: for Relative activity (% in relation to Met): activity of N-acetyl-D-methionine = 100; for Relative activity (% in relation to Met) / Relative activity (% in relation to Val): 100 mmol/L substrate solution, pH 8, 37° C., 30 minutes; for Relative activity (% in relation to Val): activity of N-acetyl-D-valine = 100; for Substrate specificity: whether the enzyme acts on the substrate: D- or L-amino acid oxidase detection
Source text: (4) Substrate specificity: Substrate specificity of the acylase of the present invention was confirmed by using the following N-acetyl-D-amino acids and N-acetyl-L-amino acids as the substrate and combining therewith the D-amino acid oxidase or the L-amino acid oxidase. The acylase of the present invention acts on the following N-acetyl-D-amino acids but not on the N-acetyl-L-amino acids.
In the measurement of the reactivity with the L-amino acids, an oxidase for L-amino acids is used instead of the D-amino acid oxidase in the activity measurement as will be described below.
4. Substrate specificity was determined by an activity measurement method using the chromogenic reagents for the D- and L-amino acid oxidases as described above.

[4] = system: D-aminoacylase from Defluvibacter sp. A131-3 strain; assay: Production of D-valine by resolution of N-acetyl-D,L-valine (HPLC); format: biochemical; conditions: 15% aqueous N-acetyl-D,L-valine, enzyme 200 U/mL, 40° C.
Procedure: It was then confirmed that the strains that had been selected by the chromogenic process show rapid reduction of the N-acetyl-D-valine and increase of the D-valine in an amount corresponding to the reduction of the N-acetyl-D-valine.
By using 15% aqueous solution of N-acetyl-D,L-valine as a substrate, D-aminoacylase from Defluvibacter sp. A131-3 strain was added with in an amount of 200 U per 1 ml of the aqueous solution of the substrate, and the reaction was allowed to proceed at 40° C. for 3 days. The rate of D-valine production by resolution from the N-acetyl-D,L-valine was measured by the HPLC method described in Example 1 (2).

[5] = Optimal temperature of the enzyme; format: biochemical, Defluvibacter sp. A131-3; conditions: pH 8, 30 minutes
[6] = 30° C., 1 day
[7] = Isoelectric point by two-dimensional electrophoresis for denatured system; format: physicochemical, Defluvibacter sp. A131-3; conditions: calculated from mobility of 2D-protein isoelectric point markers
Procedure: (3) Isoelectric point: Isoelectric point is measured on the basis of two-dimensional electrophoresis process by two-dimensional electrophoresis for denatured system (using IPG tube gel “Daiichi” 4-10 and PAG Large “Daiichi” 2D-10/20 manufactured by Daiichi Pure Chemicals Co., Ltd.). The pI value of 5.3 is calculated from mobility of 2D-protein isoelectric point markers (2D-protein isoelectric point markers “Daiichi” manufactured by Daiichi Pure Chemicals Co., Ltd.).
3. Protein isoelectric point was measured on the bases of two-dimensional electrophoresis process by two-dimensional electrophoresis for denatured system (using IPG tube gel “Daiichi” 4-10 and PAG Large “Daiichi” 2D-10/20 manufactured by Daiichi Pure Chemicals Co., Ltd.). The pI value of the enzyme of the present invention calculated from the mobility of the pI values 5.1, 5.2, 5.3, 5.4, 5.7, 6.0, 6.2, 6.4, 6.5, 6.7, 6.8, 7.0, and 7.1 of the 2D-protein isoelectric point markers (2D-protein isoelectric point markers “Daiichi” manufactured by Daiichi Pure Chemicals Co., Ltd.) was 5.3.

Molecule	Relative activity (% in relation to Met) [3]	Relative activity (% in relation to Val) [3]	Substrate specificity: whether the enzyme acts on the substrate [3]	further results
O[C@H](CS)[C@H](O)CS (racemic) [Dithiothreitol, dithiothreitol]	–	–	–	Effects of inhibitors on activity [1]: inhibited; Relative activity (%) [1]: 38%
OCCS [2-mercaptoethanol]	–	–	–	Effects of inhibitors on activity [1]: inhibited
O.O.O.O.O.O.[Cl-].[Cl-].[Co+2] [Cobalt (II) chloride, cobalt (II) chloride hexahydrate]	–	–	–	Effects of metal ions on activity [2]: inhibited; Relative activity (%) [2]: 27%
O=C(O)CN(CCN(CC(=O)O)CC(=O)O)CC(=O)O [Ethylenediamine tetraacetic acid, ethylenediamine tetraacetic acid]	–	–	–	Relative activity (%) [1]: 112%
NC(=O)CI [Iodacetamide, iodacetamide]	–	–	–	Relative activity (%) [1]: 107%
N[C@@H](CS)C(=O)O [L-cysteine]	–	–	–	Effects of inhibitors on activity [1]: inhibited
O.O.O.O.[Cl][Mn][Cl] [Manganese chloride, manganese (II) chloride tetrahydrate]	–	–	–	Effects of metal ions on activity [2]: inhibited; Relative activity (%) [2]: 48%
CC(=O)N[C@H](CCC(=O)O)C(=O)O [N-Ac-D-Glu, N-acetyl-D-glutamic acid]	0%	0%	–	–
CC(=O)N[C@H](CC(C)C)C(=O)O [N-Ac-D-Leu, N-acetyl-D-leucine]	555%	73%	to some extent; also recorded: acting on	–
CSCC[C@@H](NC(C)=O)C(=O)O [N-Ac-D-Met, N-acetyl-D-methionine]	100%	13%	to some extent; also recorded: acting on	–
CC(=O)N[C@H](Cc1ccccc1)C(=O)O [N-Ac-D-Phe, N-acetyl-D-phenylalanine]	37%	4.8%	to some extent; also recorded: acting on	–
CC(=O)N[C@H](Cc1c[nH]c2ccccc12)C(=O)O [N-Ac-D-Trp, N-acetyl-D-tryptophan]	1.1%	0.2%	to some extent	Substrate specificity: whether the enzyme acts on the substrate ([3]; listed as N-acetyl-D-triptophan): acting on
CC(=O)N[C@H](Cc1ccc(O)cc1)C(=O)O [N-Ac-D-Tyr, N-acetyl-D-tyrosine]	8.4%	1.1%	to some extent; also recorded: acting on	–
CC(=O)N[C@@H](C(=O)O)C(C)C [N-Ac-D-Val, N-acetyl-D-valine]	762%	100%	acted most effectively; also recorded: acting on	–
CC(=O)N[C@@H](CCC(=O)O)C(=O)O [N-Ac-L-Glu, N-acetyl-L-glutamic acid]	0%	0%	–	–
CC(=O)N[C@@H](CC(C)C)C(=O)O [N-Ac-L-Leu, N-acetyl-L-leucine]	0%	0%	does not act on	–
CSCC[C@H](NC(C)=O)C(=O)O [N-Ac-L-Met, N-acetyl-L-methionine]	0%	0%	does not act on	–
CC(=O)N[C@@H](Cc1ccccc1)C(=O)O [N-Ac-L-Phe, N-acetyl-L-phenylalanine]	0%	0%	does not act on	–
CC(=O)N[C@@H](Cc1c[nH]c2ccccc12)C(=O)O [N-Ac-L-Trp, N-acetyl-L-tryptophan]	0%	0%	does not act on	–
CC(=O)N[C@@H](Cc1ccc(O)cc1)C(=O)O [N-Ac-L-Tyr, N-acetyl-L-tyrosine]	0%	0%	does not act on	–
CC(=O)N[C@H](C(=O)O)C(C)C [N-Ac-L-Val, N-acetyl-L-valine]	0%	0%	does not act on	Decomposition of the L-form by the enzyme [4]: not decomposed at all
CCN1C(=O)C=CC1=O [N-ethylmaleimide]	–	–	–	Relative activity (%) [1]: 100%
O.O.O.O.O.O.[Cl][Ni][Cl] [Nickel chloride, nickel chloride hexahydrate]	–	–	–	Effects of metal ions on activity [2]: inhibited; Relative activity (%) [2]: 20%
c1cnc2c(c1)ccc1cccnc12 [O-phenanthroline, o-phenanthroline]	–	–	–	Effects of inhibitors on activity [1]: inhibited; Relative activity (%) [1]: 53%; Relative activity (%) ([1]; listed as o-phenanthroline): less than 60%
[Cl-].[K+] [Potassium chloride, potassium chloride]	–	–	–	Relative activity (%) [2]: 92%
[Cl-].[Na+] [Sodium chloride, sodium chloride]	–	–	–	Relative activity (%) [2]: 99%
[Na+].[Na+].[O]=[Mo](=[O])([O-])[O-] [Sodium molybdate, sodium molybdate]	–	–	–	Relative activity (%) [2]: 105%
[Cl-].[Cl-].[Zn+2] [Zinc chloride, zinc chloride]	–	–	–	Effects of metal ions on activity [2]: inhibited; Relative activity (%) [2]: 31%
iron (III) chloride hexahydrate	–	–	–	Relative activity (%) [2]: 88%
B1	–	–	–	Optimal temperature [5]: 37 °C; Residual activity at pH 6 or pH 11 [6]: not 0%; pH at which the enzyme is most stable [6]: ~9 pH; Isoelectric point (pI value) [7]: 5.3

— patent US20080096244A1, “D-AMINOACYLASE” (DAIICHI PURE CHEMICALS CO., LTD., priority 2002, published 2008)
